# Data as given in patent US20250312258A1, “2,3-PYRROLIDINEDIONE CONJUGATES AND METHODS OF USING THEREOF” (North Carolina State University, priority 2022, published 2025).
# Where two headings read alike, the source gives them in different places.
# Legend:
# S. aureus 25923 = assay: Broth microdilution MIC, S. aureus 25923; type: cell-based, Staphylococcus aureus; details: Staphylococcus aureus, 25923; read-out: MIC (S. aureus 25923)
# S. aureus 29213 = assay: Broth microdilution MIC, S. aureus 29213; type: cell-based, Staphylococcus aureus; details: Staphylococcus aureus
# MRSA 33591 = assay: Broth microdilution MIC, MRSA 33591; type: cell-based; details: Staphylococcus aureus, read-out: MIC (MRSA 33591)
# VRSA [1] = assay: MIC against VRSA (Table 2); type: cell-based; details: Staphylococcus aureus, read-out: MIC (VRSA)
# VRSA [2] = assay: MIC against VRSA strain panel (VRS/NRS strains); type: cell-based; details: Staphylococcus aureus, read-out: MIC
# VRE = assay: MIC / in vitro activity against VRE strain panel; type: cell-based, Enterococcus spp.; details: for MIC: Enterococcus, VRE, read-out: MIC
# MRSA = assay: MIC against MRSA strain panel; type: cell-based; details: Staphylococcus aureus, the 4th table, read-out: MIC
# MSSA = assay: MIC against MSSA strain panel; type: cell-based; details: Staphylococcus aureus, the 4th table, read-out: MIC
smiles,measurement,setting,value
CCC1C(c2ccc(C(F)(F)F)cc2)=C(O)C(=O)N1C1CCC(NC)CC1 (centres unmarked) [Compound 4],MIC,S. aureus 25923,0.5 µg/mL
same,MIC,"S. aureus 29213; 29213, read-out: MIC (S. aureus 29213)",0.5 to 1 µg/mL
same,MIC,"S. aureus 29213; ATCC 29213 / MRSA, ATCC 29213 MRSA, the 4th table, read-out: MIC",2 µg/mL
same,MIC,"S. aureus 29213; ATCC 29213 / MRSA, ATCC 29213 MRSA, the 5th table, read-out: MIC",1 µg/mL
same,MIC,MRSA 33591,1 µg/mL
same,MIC,VRSA [1],1 µg/mL
same,MIC,"VRSA [2]; NRS 1 / VRSA, NRS-1 (VRSA), the 3rd table",4 µg/mL
same,MIC,"VRSA [2]; NRS 1 / VRSA, NRS-1 VRSA, the 5th table",4 µg/mL
same,MIC,"VRSA [2]; NRS 2 / VRSA, NRS-2 VRSA, the 5th table",2 µg/mL
same,MIC,"VRSA [2]; VRSA, VRS-1 (VRSA), the 3rd table",16 µg/mL
same,MIC,"VRSA [2]; VRSA, VRS-1 VRSA, the 5th table",16 µg/mL
same,MIC,"VRSA [2]; VRSA, VRS-2 (VRSA), the 3rd table",4 µg/mL
same,MIC,"VRSA [2]; VRSA, VRS-2 VRSA, the 5th table",4 µg/mL
same,MIC,"VRSA [2]; VRSA, VRS-3a VRSA, the 5th table",4 µg/mL
same,MIC,"VRSA [2]; VRSA, VRS-3b VRSA, the 5th table",> 64 µg/mL
same,MIC,"VRSA [2]; VRSA, VRS-4 (VRSA), the 3rd table",4 µg/mL
same,MIC,"VRSA [2]; VRSA, VRS-4 VRSA, the 5th table",8 µg/mL
same,MIC,"VRSA [2]; VRSA, VRS-5 VRSA, the 5th table",8 µg/mL
same,MIC,"VRSA [2]; VRSA, VRS-6 VRSA, the 5th table",16 µg/mL
same,MIC,"VRSA [2]; VRSA, VRS-7 VRSA, the 5th table",8 µg/mL
same,MIC,"VRSA [2]; VRSA, VRS-8 VRSA, the 5th table",16 µg/mL
same,MIC,"VRSA [2]; VRSA, VRS-9 VRSA, the 5th table",16 µg/mL
same,MIC,"VRSA [2]; VRSA, VRS-10 VRSA, the 5th table",16 µg/mL
same,MIC,"VRSA [2]; VRSA, VRS-11a VRSA, the 5th table",16 µg/mL
same,MIC,"VRSA [2]; VRSA, VRS-11b VRSA, the 5th table",16 µg/mL
same,MIC,"VRE; 1593 (VRE), the 3rd table",8 µg/mL
same,MIC,"VRE; 1593 VRE, the 4th table",8 µg/mL
same,MIC,"VRE; 1751 (VRE), the 3rd table",4 µg/mL
same,MIC,"VRE; 1751 VRE, the 6th table",4 µg/mL
same,MIC,"VRE; 1772 VRE, the 6th table",8 µg/mL
same,MIC,"VRE; 1946 VRE, the 6th table",8 µg/mL
same,MIC,"VRE; 2059 VRE, the 6th table",8 µg/mL
same,MIC,"VRE; 2431 (VRE), the 3rd table",8 µg/mL
same,MIC,"VRE; 2431 VRE, the 6th table",8 µg/mL
same,MIC,"VRE; 2574 VRE, the 6th table",8 µg/mL
same,MIC,"VRE; 3053 VRE, the 6th table",16 µg/mL
same,MIC,"VRE; 3183 (VRE), the 3rd table",4 µg/mL
same,MIC,"VRE; 3183 VRE, the 6th table",4 µg/mL
same,MIC,"VRE; 3190 VRE, the 6th table",8 µg/mL
same,MIC,"VRE; 3191 VRE, the 6th table",8 µg/mL
same,MIC,"VRE; 3222 (VRE, the 3rd table)",8 µg/mL
same,MIC,"VRE; 3222 VRE, the 6th table",8 µg/mL
same,MIC,"VRE; 3235 VRE, the 6th table",8 µg/mL
same,MIC,"VRE; 3239 VRE, the 6th table",8 µg/mL
same,MIC,"VRE; 3241 VRE, the 6th table",8 µg/mL
same,MIC,"VRE; 3623 VRE, the 6th table",8 µg/mL
same,in vitro activity against vancomycin-resistant Enterococcus spp. (VRE) compared with vancomycin,VRE; FIGS. 4A-4D,superior in vitro activity
same,MIC,MRSA; 6215 MRSA,1 µg/mL
same,MIC,MRSA; 6217 MRSA,1 µg/mL
same,MIC,MRSA; 6218 MRSA,1 µg/mL
same,MIC,MRSA; 6220 MRSA,1 µg/mL
same,MIC,MRSA; 6231 MRSA,1 µg/mL
same,MIC,MRSA; AR-978 MRSA,1 µg/mL
same,MIC,MRSA; AR-979 MRSA,1 µg/mL
same,MIC,MRSA; AR-993 MRSA,1 µg/mL
same,MIC,MRSA; AR-997 MRSA,1 µg/mL
same,MIC,MSSA; VGP16-94 MSSA,1 µg/mL
same,MIC,MSSA; VGP16-95 MSSA,2 µg/mL
same,MIC,MSSA; VGP16-96 MSSA,1 µg/mL
same,MIC,MSSA; VGP16-97 MSSA,1 µg/mL
same,MIC,MSSA; VGP16-98 MSSA,1 µg/mL
same,MIC,MSSA; VGP16-99 MSSA,1 µg/mL
